In patent publication US8623340B2, “Omega-cyclohexylalkan-1-oles and use thereof as antimicrobial actives to combat body odor” (Symrise AG, priority 2009, dated 2014):
Converted amounts (≈) assume the structure as drawn.

Legend:
Format in all cases: cell-based
[1] = system: Brevibacterium epidermidis (ATCC 35514); assay: MIC determination by turbidimetric growth curves; conditions: 16 h, 37° C., turbidimetry 620 nm
Source text: (§1) The observation that the compounds of formula (I) are very particularly suitable for combating microorganisms which are responsible for body odor is based on a series of investigations relating to the particularly relevant microorganisms Staphylococcus epidermidis Corynebacterium xerosis, and Brevibacterium epidermidis. The antimicrobial action of the compounds of formula (I) is here detected with the assistance of a turbidimetric measurement method. Turbidity measurement is used to establish growth curves for the particular microorganism in the presence and absence of an antimicrobial active ingredient. A possible inhibitory action of the test substance used is identified from the profile of the growth curves. Solutions with saline or DMSO for 100% growth are prepared as a negative control. The active substances to be investigated are first diluted in DMSO in reaction vessels. Dilution is carried out in accordance with the concentration range to be tested and corresponds in each case to 100 times the concentration of the subsequent final concentration in the test Testing is usually begun with a final concentration of 2000 ppm (corresponding to 0.2 wt.-%) in the test. Growth curves at final concentrations of 1000 ppm, 500 ppm, 250 ppm, 125 ppm, 64 ppm, 32 ppm, 16 ppm and 8 ppm are subsequently determined. The bacterial cultures are then incubated in the presence of the various final concentrations of antimicrobial active ingredient for 16 h (incubation temperature: 37° C.). The absorption values (wavelength 620 nm; measurement interval: 20 minutes) obtained over the 16 hour period of turbidimetric measurement are recorded and exported into the spreadsheet program MS Excel. Means from in each case three parallel batches are calculated and used as the basis for establishing growth curves. The curves of the individual test sample concentrations are compared with those for the negative controls and the MIC value (minimum inhibitory concentration) is determined. The MIC value is the concentration at which no further growth is observable by turbidimetry.

[2] = system: Corynebacterium xerosis (DSM 20743); assay: MIC determination by turbidimetric growth curves; conditions: 16 h, 37° C., turbidimetry 620 nm
Source text: as §1

[3] = system: Staphylococcus epidermidis (ATCC 12228); assay: MIC determination by turbidimetric growth curves; conditions: ATCC12228, 16 h, 37° C., turbidimetry 620 nm, read-out: MIC (complete inhibition of growth, usage concentration)
Source text: as §1

[4] = system: Corynebacterium xerosis (DSM 20743); assay: quantitative suspension test
[5] = system: Staphylococcus epidermidis (ATCC 12228); assay: quantitative suspension test
[6] = system: Brevibacterium epidermidis (ATCC 35514); assay: quantitative suspension test
[7] = system: Corynebacterium xerosis (DSM 20743, ATCC 373) biofilm; assay: Biofilm formation, classic assay (crystal violet staining CV580); conditions: 12.5 μg/ml
Source text: The recognition that the compounds of formula (I) are also very particularly suitable for either inhibition of initial biofilm formation and stagnation or even detachment of pre-existing biofilms is based on a series of investigations relating to the particularly relevant microorganism Corynebacterium xerosis. The antimicrobial action of the compounds of formula (I) on biofilms is hereby detected with the assistance of a staining method. Crystal violet staining is used to quantify amount of biofilm in the presence and absence of an antimicrobial active ingredient. A possible inhibitory action of the test substance used is identified from the staining profile. Corynebacterium xerosis can adhere to artificial laboratory surfaces and contribute to biofilm formation much the same way as it can do on skin in vivo. Therefore we furtheron established a test system to evaluate the influence of antimicrobial active compounds of formula (I) on Corynebacterium xerosis forming a biofilm or already residing in a biofilm. […] Biofilm formation can be analyzed by crystal violet staining with subsequent spectroscopic quantitation at 580 nm (CV580). […] Anti-microbial effects of test compounds on biofilm formation was determined by CV580 crystal violet staining 18-24 hours after inoculation and several washing steps that are needed to separate planctonic grown microorganisms.

[8] = system: Corynebacterium xerosis (DSM 20743, ATCC 373) biofilm; assay: Biofilm, mid-log assay on pre-existing biofilm (crystal violet staining CV580); conditions: 12.5 μg
Source text: The recognition that the compounds of formula (I) are also very particularly suitable for either inhibition of initial biofilm formation and stagnation or even detachment of pre-existing biofilms is based on a series of investigations relating to the particularly relevant microorganism Corynebacterium xerosis. The antimicrobial action of the compounds of formula (I) on biofilms is hereby detected with the assistance of a staining method. Crystal violet staining is used to quantify amount of biofilm in the presence and absence of an antimicrobial active ingredient. A possible inhibitory action of the test substance used is identified from the staining profile. […] Biofilm formation can be analyzed by crystal violet staining with subsequent spectroscopic quantitation at 580 nm (CV580). […] Optical density OD580 was then measured followed by crystal violet staining and spectroscopic quantitation of the biofilm at 580 nm (CV580). Mid-log time point was determined by cultivating untreated C. xerosis cells on separate control plates. CV580 crystal violet staining data of untreated control cells at mid-log were recorded. […] CV580 of untreated control samples was also recorded. […] Thus, untreated control cells will reach a value of 200%, corresponding to twice the exactly determined mid-log time point (half-maximal values for CV580; which was set 100%). […]

| Compound | concentration establishing inhibition of the growth [1] | concentration establishing inhibition of the growth [2] | MIC [3] | antimicrobial activity in quantitative suspension test [4] | antimicrobial activity in quantitative suspension test [5] | antimicrobial activity in quantitative suspension test [6] | biofilm formation inhibition [7] | biofilm observed compared to the untreated control (set to 200%; mid-log value 100%) [8] |
| --- | --- | --- | --- | --- | --- | --- | --- | --- |
| CCCC(CO)CCCC1CCCCC1 (stereo not shown) [5-cyclohexyl-2-n-propyl-pentanol] | below 0.2 wt. % | below 0.2 wt. % | 16 mg/L (≈ 75.3 µM) | confirm the antimicrobial activity | confirm the antimicrobial activity | confirm the antimicrobial activity | 65% | 100% |
| CC(CO)CCCC1CCCCC1 (stereo not shown) [5-cyclohexyl-2-methyl-pentanol] | below 0.2 wt. % | below 0.2 wt. % | 64 mg/L (≈ 347 µM) | confirm the antimicrobial activity | confirm the antimicrobial activity | confirm the antimicrobial activity | 92% | 53% |
